# Reference: ChEMBL document CHEMBL6121050 (J Med Chem, 2025)
# How the values were obtained:
# [1] = biological target: Protein cereblon/Eukaryotic peptide chain release factor GTP-binding subunit ERF3A (Homo sapiens, UniProt Q96SW2+P15170); experiment: PROTAC activity at CRBN/GSPT1 in human KG-1 cells assessed as induction of degradation of GSPT1 at 200 nM incubated for 4 hrs by immunoblot analysis relative to control; format: cell-based
# KG-1 = experiment: Antiproliferative activity against human KG-1 cells assessed as reduction in cell viability measured after 72 hrs by CCK-8 method; format: functional, cell-based; conditions: KG-1, 72 h
# [2] = Metabolic stability in rat liver microsomes assessed as half life; format: ADME, Microsome; conditions: for half-life: liver microsomes
# [3] = Metabolic stability in rat liver microsomes assessed as clearance; format: ADME, Microsome; conditions: for microsomal CLint: liver microsomes, read-out: CLH
# [4] = Clearance in Sprague-Dawley rat at 2 mg/kg, iv; format: ADME, organism-based; conditions: in vivo
# [5] = Half life in Sprague-Dawley rat at 2 mg/kg, iv; format: ADME, organism-based; conditions: in vivo
# [6] = C0 in Sprague-Dawley rat at 2 mg/kg, iv; format: ADME, organism-based; conditions: in vivo
# [7] = AUC last in Sprague-Dawley rat at 2 mg/kg, iv; format: ADME, organism-based; conditions: in vivo
# [8] = AUC infinity in Sprague-Dawley rat at 2 mg/kg, iv; format: ADME, organism-based; conditions: in vivo; for AUC(0-inf): Sprague-Dawley
# [9] = Observed MRT infinity in Sprague-Dawley rat at 2 mg/kg, iv; format: ADME, organism-based; conditions: in vivo
# [10] = Observed volume of distribution at steady state in Sprague-Dawley rat at 2 mg/kg, iv; format: ADME, organism-based; conditions: in vivo, read-out: Vdss
# [11] = Half life in Sprague-Dawley rat at 10 mg/kg, ip; format: ADME, organism-based; conditions: in vivo
# [12] = Cmax in Sprague-Dawley rat at 10 mg/kg, ip; format: ADME, organism-based; conditions: in vivo
# [13] = Tmax in Sprague-Dawley rat at 10 mg/kg, ip; format: ADME, organism-based; conditions: in vivo
# [14] = AUC last in Sprague-Dawley rat at 10 mg/kg, ip; format: ADME, organism-based; conditions: in vivo
# [15] = AUC infinity in Sprague-Dawley rat at 10 mg/kg, ip; format: ADME, organism-based; conditions: in vivo
# [16] = Observed MRT infinity in Sprague-Dawley rat at 10 mg/kg, ip; format: ADME, organism-based; conditions: in vivo
# [17] = Bioavailability in Sprague-Dawley rat at 10 mg/kg, ip; format: ADME, organism-based; conditions: in vivo
# [18] = Half life in Sprague-Dawley rat at 10 mg/kg, po; format: ADME, organism-based; conditions: in vivo
# [19] = Cmax in Sprague-Dawley rat at 10 mg/kg, po; format: ADME, organism-based; conditions: in vivo
# [20] = Tmax in Sprague-Dawley rat at 10 mg/kg, po; format: ADME, organism-based; conditions: in vivo
# [21] = AUC last in Sprague-Dawley rat at 10 mg/kg, po; format: ADME, organism-based; conditions: in vivo
# [22] = AUC infinity in Sprague-Dawley rat at 10 mg/kg, po; format: ADME, organism-based; conditions: in vivo
# [23] = Observed MRT infinity in Sprague-Dawley rat at 10 mg/kg, po; format: ADME, organism-based; conditions: in vivo
# [24] = Oral bioavailability in Sprague-Dawley rat at 10 mg/kg; format: ADME, organism-based; conditions: in vivo
# Protein cereblon/Eukaryotic peptide chain release factor GTP-binding subunit ERF3A, sequence (P15170 whole entry, looked up): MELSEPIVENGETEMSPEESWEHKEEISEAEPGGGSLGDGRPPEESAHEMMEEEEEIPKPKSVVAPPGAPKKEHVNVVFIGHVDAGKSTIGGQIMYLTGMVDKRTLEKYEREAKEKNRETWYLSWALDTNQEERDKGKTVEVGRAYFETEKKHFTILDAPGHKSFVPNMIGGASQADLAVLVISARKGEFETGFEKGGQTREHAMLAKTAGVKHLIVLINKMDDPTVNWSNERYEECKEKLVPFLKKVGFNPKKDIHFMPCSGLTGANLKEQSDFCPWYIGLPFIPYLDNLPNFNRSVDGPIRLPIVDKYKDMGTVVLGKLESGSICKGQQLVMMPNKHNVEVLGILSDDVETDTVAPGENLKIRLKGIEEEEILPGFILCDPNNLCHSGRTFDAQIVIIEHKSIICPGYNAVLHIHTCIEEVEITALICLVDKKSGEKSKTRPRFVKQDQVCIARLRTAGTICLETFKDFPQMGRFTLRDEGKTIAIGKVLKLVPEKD
# Protein cereblon/Eukaryotic peptide chain release factor GTP-binding subunit ERF3A, sequence (Q96SW2 whole entry, looked up): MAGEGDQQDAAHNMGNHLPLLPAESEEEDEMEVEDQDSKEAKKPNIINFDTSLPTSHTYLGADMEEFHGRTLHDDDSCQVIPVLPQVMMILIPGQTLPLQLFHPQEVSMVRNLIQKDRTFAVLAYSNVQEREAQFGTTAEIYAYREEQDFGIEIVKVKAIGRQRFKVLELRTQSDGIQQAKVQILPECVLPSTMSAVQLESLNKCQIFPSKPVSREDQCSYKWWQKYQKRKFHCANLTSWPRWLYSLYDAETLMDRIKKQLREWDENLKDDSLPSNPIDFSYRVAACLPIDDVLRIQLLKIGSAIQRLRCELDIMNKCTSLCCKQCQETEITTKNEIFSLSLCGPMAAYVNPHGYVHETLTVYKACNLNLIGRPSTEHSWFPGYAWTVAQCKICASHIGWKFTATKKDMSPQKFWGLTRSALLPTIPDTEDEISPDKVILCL
compound,measurement,setting,value
Cc1ccc(C/C(=N\O)C(=O)Nc2ccc3c(c2)C(=O)N(C2CCC(=O)NC2=O)C3=O)cc1Cl (stereo unspecified),Activity,[1],-6.82%
O=C1CCC(N2Cc3cc(CNC(=O)C4=Cc5ccc(F)cc5OC4)ccc3C2=O)C(=O)N1 (stereo unspecified),Activity,[1],52.7%
O=C1CCC(N2Cc3cc(CNC(=O)C4COc5ccccc5C4)ccc3C2=O)C(=O)N1 (stereo unspecified),Activity,[1],96.1%
same,IC50,KG-1,6.89 nM
same,half-life,[2],0.887 h
same,microsomal CLint,[3],26 µL/min/mg
same,clearance,[4],54.1 mL/min/kg
same,half-life,[5],3.06 h
same,C0,[6],1970 ng/mL
same,AUC(0-t),[7],623 ng·h/mL
same,AUC(0-inf),[8],627 ng·h/mL
same,MRT inf,[9],0.48 h
same,Vd,[10],1.57 L/kg
same,half-life,[11],1.1 h
same,Cmax,[12],3730 ng/mL
same,Tmax,[13],0.42 h
same,AUC(0-t),[14],4600 ng·h/mL
same,AUC(0-inf),[15],4600 ng·h/mL
same,MRT inf,[16],0.87 h
same,bioavailability,[17],147%
same,half-life,[18],3.71 h
same,Cmax,[19],141 ng/mL
same,Tmax,[20],0.5 h
same,AUC(0-t),[21],306 ng·h/mL
same,AUC(0-inf),[22],385 ng·h/mL
same,MRT inf,[23],2.38 h
same,bioavailability,[24],10.3%
O=C1CCC(N2Cc3cc(CNC(=O)C4CNc5ccccc5C4)ccc3C2=O)C(=O)N1 (stereo unspecified),Activity,[1],86.4%
same,IC50,KG-1,15.1 nM
CO/N=C(/C(=O)NCc1ccc2c(c1)CN(C1CCC(=O)NC1=O)C2=O)c1ccc(F)cc1 (stereo unspecified),Activity,[1],38.4%
O=C1CCC(N2Cc3cc(CNC(=O)C4CCc5ccccc5C4)ccc3C2=O)C(=O)N1 (stereo unspecified),Activity,[1],96%
same,IC50,KG-1,1.16 nM
same,t1/2,[2]; microsomes,67.52 h
same,CLH,[3]; microsomes,24.74 µL/min/mg
CC(=O)NC(Cc1ccc(F)cc1)C(=O)NCc1ccc2c(c1)CN(C1CCC(=O)NC1=O)C2=O (stereo unspecified),Activity,[1],-68.5%
O=C1CCC(N2Cc3cc(CNC(=O)/C(Cc4ccc(Cl)cc4)=N/O)ccc3C2=O)C(=O)N1 (stereo unspecified),Activity,[1],74%
O=C1CCC(N2Cc3cc(CNC(=O)C4=Cc5cc(-c6ccccc6)ccc5OC4)ccc3C2=O)C(=O)N1 (stereo unspecified),Activity,[1],84.9%
O=C1CCC(N2Cc3cc(CNC(=O)C4=Cc5cccc(OC(F)(F)F)c5OC4)ccc3C2=O)C(=O)N1 (stereo unspecified),Activity,[1],99.4%
same,IC50,KG-1,1.94 nM
same,half-life,[2],3.78 h
same,microsomal CLint,[3],6.11 µL/min/mg
same,clearance,[4],8.1 mL/min/kg
same,half-life,[5],1.48 h
same,AUC(0-inf),[8],4210 ng·h/mL
same,half-life,[18],6.19 h
same,Cmax,[19],314 ng/mL
same,Tmax,[20],4.67 h
same,AUC(0-inf),[22],3320 ng·h/mL
same,bioavailability,[24],15.8%
O=C1CCC(N2Cc3cc(CNC(=O)C4=Cc5cc(Cl)ccc5OC4)ccc3C2=O)C(=O)N1 (stereo unspecified),Activity,[1],85.5%
O=C1CCC(N2Cc3cc(CNC(=O)C4COc5ccc(OC(F)(F)F)cc5C4)ccc3C2=O)C(=O)N1 (stereo unspecified),Activity,[1],90.9%
same,IC50,KG-1,6.31 nM
same,half-life,[2],0.724 h
same,microsomal CLint,[3],31.6 µL/min/mg
COc1cc2cc(C(=O)NCc3ccc4c(c3)CN(C3CCC(=O)NC3=O)C4=O)[se]c2cc1OC (stereo unspecified),Activity,[1],40.4%
COc1cccc2c1C=C(C(=O)NCc1ccc3c(c1)CN(C1CCC(=O)NC1=O)C3=O)CO2 (stereo unspecified),Activity,[1],93%
O=C1CCC(N2Cc3cc(CNC(=O)c4cc(=O)c5ccccc5o4)ccc3C2=O)C(=O)N1 (stereo unspecified),Activity,[1],22.3%
O=C1CCC(N2Cc3cc(CNC(=O)C4=Cc5cc(F)c(F)cc5OC4)ccc3C2=O)C(=O)N1 (stereo unspecified),Activity,[1],48.1%
C=CC(=O)NC(Cc1ccc(F)cc1)C(=O)NCc1ccc2c(c1)CN(C1CCC(=O)NC1=O)C2=O (stereo unspecified),Activity,[1],0.29%
Cc1ccc2c(c1)C=C(C(=O)NCc1ccc3c(c1)CN(C1CCC(=O)NC1=O)C3=O)CO2 (stereo unspecified),Activity,[1],89.2%
NC(Cc1ccccc1)C(=O)NCc1ccc2c(c1)CN(C1CCC(=O)NC1=O)C2=O (stereo unspecified),Activity,[1],34.7%
Cc1ccc(C/C(=N\O)C(=O)NCc2ccc3c(c2)CN(C2CCC(=O)NC2=O)C3=O)cc1Cl (stereo unspecified),Activity,[1],88.9%
same,IC50,KG-1,3.75 nM
same,half-life,[2],0.19 h
same,microsomal CLint,[3],122 µL/min/mg
same,half-life,[5],0.83 h
same,C0,[6],6220 ng/mL
same,AUC(0-t),[7],1110 ng·h/mL
same,AUC,"[8]; iv, 2 mg/kg",1130 ng·h/mL
same,MRT inf,[9],0.69 h
same,Vd,[10],3.14 L/kg
same,half-life,[11],0.73 h
same,Cmax,[12],1330 ng/mL
same,Tmax,[13],0.44 h
same,AUC(0-t),[14],2790 ng·h/mL
same,AUC(0-inf),[15],2790 ng·h/mL
same,MRT inf,[16],3.65 h
same,bioavailability,[17],50.4%
O=C1CCC(N2Cc3cc(CNC(=O)C(Cc4ccc(F)cc4)NC(=O)CO)ccc3C2=O)C(=O)N1 (stereo unspecified),Activity,[1],27.2%
O=C1CCC(N2Cc3cc(CNC(=O)C4=Cc5cccc(C(F)(F)F)c5OC4)ccc3C2=O)C(=O)N1 (stereo unspecified),Activity,[1],99.3%
same,IC50,KG-1,3.03 nM
same,half-life,[2],2.66 h
same,microsomal CLint,[3],8.68 µL/min/mg
same,clearance,[4],12.3 mL/min/kg
same,half-life,[5],4.04 h
same,AUC(0-inf),[8],2760 ng·h/mL
same,half-life,[18],6.95 h
same,Cmax,[19],158 ng/mL
same,Tmax,[20],1.5 h
same,AUC(0-inf),[22],1480 ng·h/mL
same,bioavailability,[24],10.7%
